Earlier results, collected in patent publication US20160184332A1, “MEDICAMENT COMPRISING A PHARMACEUTICAL COMBINATION OF DRUGS” (priority 2013, published 2016).

Legend:
CYP3A4 = CYP3A4 (Homo sapiens, UniProt P08684); conditions: minor route; primary route of metabolism is glucuronidation
[1] = tested on: cytochrome P450 (CYP) isozymes; conditions: in vitro
[2] = tested on: human CYP 450 isoenzymes: 1A2, 2A6, 2B6, 2C9, 2C19, 2D6 and 3A4
[3] = tested on: uridine-5-5′-diphosphoglucuronyl transferase; conditions: enzyme responsible for glucuronidation

CYP3A4, sequence (P08684 whole entry): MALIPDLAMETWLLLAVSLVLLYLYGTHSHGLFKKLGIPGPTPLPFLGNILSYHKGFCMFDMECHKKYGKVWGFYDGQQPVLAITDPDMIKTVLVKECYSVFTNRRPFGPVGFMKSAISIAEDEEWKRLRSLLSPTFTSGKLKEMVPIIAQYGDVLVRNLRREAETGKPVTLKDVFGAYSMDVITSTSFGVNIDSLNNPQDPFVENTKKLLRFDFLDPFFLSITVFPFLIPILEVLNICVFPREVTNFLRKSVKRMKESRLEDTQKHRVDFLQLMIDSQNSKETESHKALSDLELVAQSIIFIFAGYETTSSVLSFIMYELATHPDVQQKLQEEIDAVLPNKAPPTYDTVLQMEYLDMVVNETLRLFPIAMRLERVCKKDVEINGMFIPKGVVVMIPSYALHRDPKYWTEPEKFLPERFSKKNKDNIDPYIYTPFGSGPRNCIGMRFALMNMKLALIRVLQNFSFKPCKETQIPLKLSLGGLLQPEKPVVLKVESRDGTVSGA

C[C@@H]1CCO[C@H]2Cn3cc(C(=O)NCc4ccc(F)cc4F)c(=O)c(O)c3C(=O)N12 [dolutegravir, (4R,12aS)—N-(2,4-difluorobenzyl)-7-hydroxy-4-methyl-6,8-dioxo-3,4,6,8,12,12a-hexa-hydro-2H-pyrido[1′,2′:4,5]pyrazino[2,1-b][1,3]oxazine-9-carboxamide]
extent to which it is a substrate of CYP3A4 (CYP3A4): about 15%
induction or inhibition of cytochrome P450 (CYP) isozymes [1]: demonstrates induction or inhibition

Nc1nc(=O)n([C@@H]2CS[C@H](CO)O2)cc1F [emtricitabine, 5-fluoro-1-(2R,5S)-[2-(hydroxymethyl)-1,3 oxathiolan-5-yl]cytosine]
inhibition of in vitro drug metabolism mediated by human CYP 450 isoenzymes [2]: does not inhibit
inhibition of uridine-5-5′-diphosphoglucuronyl transferase [3]: does not inhibit
